Measurements reported in US6415046B1, “Method and apparatus for the early detection of tissue pathology using wavelet transformation” (priority 1999, dated 2002).
Read-outs that look alike come from different tables or passages of the source. Marks after values point to notes of the source that are not given here.

Key:
[1] = tested on: Male Sprague-Dawley SPF rats; conditions: 10-week rats
Procedure: In Experiment 2 (10-week), cardiac and renal tissues were harvested, rinsed in ice-cold physiologic saline, and then placed in 10% (v/v) formaldehyde solution in aqueous phosphate buffer (pH 7.4) (Mallinckrodt Inc., St. Louis, Mo.). Pancreatic tissue was harvested and fixed in buffered zinc-formaldehyde. Microscopic analysis were performed on H&E stained tissue slices.
Tissues from 10-week rats were analyzed using H&E staining. […] The degree of infiltration was evaluated qualitatively as none, few (1-4 cells per field), or marked infiltration.

[2] = tested on: Male Sprague-Dawley SPF rats; conditions: mean±SEM
Procedure: Two groups of laboratory rats were used to perform two separate experiments (Experiments 1 and 2). Male Sprague-Dawley SPF rats (Charles River Laboratories, Wilmington, Ma.) weighing between 175-200 grams were used for each study. Rats were housed two per cage in a controlled-temperature (20-22° Celsius) room where they were exposed to a 12-hour light/dark cycle. Both groups of animals received food and either water or ethanol ad lib. Body weights were recorded on a weekly basis and fluid consumption was monitored in all groups for the duration of the study. The study was approved by the Louisiana State University Medical Center Institutional Animal Care and Use Committee.
(§1) Rats in the diabetic group were injected with streptozotocin (45 mg/kg) prepared in a 0.02 M sodium citrate solution (pH 4.5) via a tail vein to induce diabetes mellitus. Rats assigned to all other groups were injected with a similar volume of sodium citrate solution. Glycosylated hemoglobin (total) was measured in tail-vein blood in all rats within two days of echocardiographic examination using a commercially available kit (Sigma Chemical Co, St. Louis, Mo.).
(§2) Twenty-five rats were used in this experiment with five animals in each group.
All animals were anesthetized with a solution of ketamine-xylazine (50-mg/kg ketamine, 4-mg/kg xylazine, intraperitoneal) and the thoracic and upper abdominal areas shaved prior to echocardiography. The rats were positioned on a table for M-mode and two-dimensional echocardiograms. Studies were performed with a Toshiba Model 380 Echocardiography instrument (Toshiba America Medical Systems, Tustin, Calif.) using a 10 MHZ transducer calibrated with phantoms prior to use. Lateral resolution less than 0.20 mm within the ROI is achieved at the imaging depths used.

[3] = mean±SEM; for Body weights at the time of echocardiographic examination: Experiment 1; for Body weights: Experiment 2, 10-weeks
Procedure: Two groups of laboratory rats were used to perform two separate experiments (Experiments 1 and 2). Male Sprague-Dawley SPF rats (Charles River Laboratories, Wilmington, Ma.) weighing between 175-200 grams were used for each study. Rats were housed two per cage in a controlled-temperature (20-22° Celsius) room where they were exposed to a 12-hour light/dark cycle. Both groups of animals received food and either water or ethanol ad lib. Body weights were recorded on a weekly basis and fluid consumption was monitored in all groups for the duration of the study.
as §1, §2

[4] = DE4 group (diabetic, 4% ethanol)
[5] = Experiment 1 (5 Wks), diabetic rats, 4% ethanol
[6] = Experiment 1 (5 Wks), non-diabetic rats, 12% ethanol
[7] = Experiment 2 (10 Wks), diabetic rats, 4% ethanol
[8] = Experiment 2 (10 Wks), non-diabetic rats, 4% ethanol
[9] = Experiment 2 (10 Wks), non-diabetic rats, 12% ethanol
[10] = E12 group (non-diabetic, 12% ethanol)

Rats with clear cells, indicative of glycogen deposition, in the kidney [1, 4]: 60%
Lymphocytic infiltrates in myocardial IVS on histologic examination ([1]; DE group (diabetic, 4% ethanol)): did not show infiltrates
Lymphocytic infiltrates in myocardial IVS on histologic examination ([1]; E4 group, all animals, graded none, few (1-4 cells per field), marked): marked lymphocytic infiltrates
Lymphocytic infiltrates in myocardial IVS on histologic examination ([1]; E12 group, all animals, graded none, few (1-4 cells per field), marked): marked lymphocytic infiltrates
IVSD [2, 5]: 0.120 ± 0.004 cm
LVD [2, 5]: 0.455 ± 0.027 cm
PWD [2, 5]: 0.143 ± 0.005 cm
IVSD [2, 6]: 0.130 ± 0.007 cm
LVD [2, 6]: 0.540 ± 0.027 cm
PWD [2, 6]: 0.150 ± 0.003 cm
IVSD [2, 7]: 0.105 ± 0.005 cm
LVD [2, 7]: 0.618 ± 0.032 cm
PWD [2, 7]: 0.125 ± 0.004^d cm
IVSD [2, 8]: 0.126 ± 0.01^a cm
LVD [2, 8]: 0.533 ± 0.033 cm
PWD [2, 8]: 0.155 ± 0.005^c cm
IVSD [2, 9]: 0.151 ± 0.004^b cm
LVD [2, 9]: 0.593 ± 0.018 cm
PWD [2, 9]: 0.159 ± 0.002^c cm
SMILES: CCO [Ethanol, ethanol]
Body weights at the time of echocardiographic examination [3, 4]: 292±22 grams (g)
Body weights at the time of echocardiographic examination [3, 10]: 301±11 grams (g)
Body weights [3, 4]: 295 ± 16 g
Body weights ([3]; E4 group (non-diabetic, 4% ethanol)): 598 ± 29 g
Body weights [3, 10]: 581 ± 25 g
